Values of other authors in patent US6531488B1, “Method of treating neurodegenerative diseases” (Merck & Co., Inc., priority 1998, dated 2003).
Where a name gives a salt, the structure may show the parent alone.

Test system: patients with Alzheimer's disease
Conditions: ARICEPT administered alone; patients diagnosed by NINCDS and DMS III-R criteria; assessed with ADAS-cog and CIBIC

For `COc1cc2c(cc1OC)C(=O)C(CC1CCN(Cc3ccccc3)CC1)C2` (racemic) [ARICEPT, (±)-2,3-dihydro-5,6-diomethoxy-2-[[1-(phenylmethyl)-4-piperidinyl]methyl]-1H-indene-1-one hydrochloride], the “effectiveness for the treatment of the symptoms of Alzheimer's disease” value is listed as “effective”.
